Laboratory results from the NIST ThermoML archive (doi:10.1016/j.jct.2013.05.051).
± gives the expanded uncertainty stated by the source.

Experiment: xn = mol fraction of the nth substance listed
Conditions: Liquid, Vibrating tube method

CCCCCCCO [heptan-1-ol] + CCCCCCC
mass density [kg/m3]
Conditions	x1 = 0.1493	x1 = 0.3215	x1 = 0.5226	x1 = 0.6698	x1 = 0.8469	x1 = 1
298.15 K, 100 kPa	699.7 ± 1.4	723.4 ± 1.4	751.3 ± 1.4	772.6 ± 1.5	804.4 ± 4.1	818.7 ± 1.5
298.15 K, 1000 kPa	700.6 ± 1.4	724.2 ± 1.4	752.1 ± 1.4	773.3 ± 1.5	805.1 ± 4	819.3 ± 1.5
298.15 K, 5000 kPa	704.1 ± 1.4	727.6 ± 1.4	755.2 ± 1.4	776.2 ± 1.5	807.8 ± 4	821.9 ± 1.5
298.15 K, 10000 kPa	708.4 ± 1.4	731.6 ± 1.4	759 ± 1.5	779.7 ± 1.5	811.1 ± 4	824.9 ± 1.5
298.15 K, 15000 kPa	712.4 ± 1.4	735.4 ± 1.4	762.6 ± 1.5	783.2 ± 1.5	814.2 ± 4	828 ± 1.6
298.15 K, 20000 kPa	716.2 ± 1.5	739.1 ± 1.5	765.9 ± 1.5	786.3 ± 1.5	817.2 ± 4	830.8 ± 1.6
298.15 K, 25000 kPa	719.8 ± 1.5	742.4 ± 1.5	769.1 ± 1.5	789.4 ± 1.5	820 ± 4.1	833.5 ± 1.6
298.15 K, 30000 kPa	723.3 ± 1.5	745.8 ± 1.5	772.3 ± 1.5	792.5 ± 1.5	822.8 ± 4.1	836.3 ± 1.6
298.15 K, 35000 kPa	726.5 ± 1.5	748.9 ± 1.5	775.3 ± 1.5	795.3 ± 1.5	825.4 ± 4.1	838.8 ± 1.6
298.15 K, 40000 kPa	729.7 ± 1.5	751.9 ± 1.5	778.2 ± 1.5	798 ± 1.5	828.1 ± 4.1	841.3 ± 1.6
298.15 K, 45000 kPa	732.8 ± 1.5	754.9 ± 1.5	781 ± 1.5	800.7 ± 1.6	830.6 ± 4.1	843.8 ± 1.6
298.15 K, 50000 kPa	735.6 ± 1.5	757.7 ± 1.5	783.6 ± 1.6	803.3 ± 1.6	833 ± 4.1	846.2 ± 1.7
298.15 K, 55000 kPa	738.5 ± 1.6	760.5 ± 1.6	786.3 ± 1.6	805.9 ± 1.6	835.4 ± 4.1	848.5 ± 1.7
298.15 K, 60000 kPa	741.2 ± 1.6	763.2 ± 1.6	788.8 ± 1.6	808.3 ± 1.6	837.7 ± 4.1	850.8 ± 1.7
298.15 K, 65000 kPa	743.9 ± 1.6	765.7 ± 1.6	791.3 ± 1.6	810.7 ± 1.6	839.9 ± 4.1	853 ± 1.7
298.15 K, 70000 kPa	746.5 ± 1.6	768.2 ± 1.6	793.7 ± 1.6	813.1 ± 1.6	842.2 ± 4.1	855.2 ± 1.7
298.15 K, 80000 kPa	751.4 ± 1.7	773 ± 1.6	798.4 ± 1.6	817.6 ± 1.7	846.4 ± 4.1	859.4 ± 1.7
298.15 K, 90000 kPa	756.2 ± 1.7	777.7 ± 1.7	802.8 ± 1.7	821.9 ± 1.7	850.6 ± 4.1	863.5 ± 1.8
298.15 K, 100000 kPa	760.6 ± 1.7	782 ± 1.7	807 ± 1.7	826 ± 1.7	854.5 ± 4.1	867.3 ± 1.8
298.15 K, 110000 kPa	764.9 ± 1.8	786.1 ± 1.7	811.2 ± 1.7	830 ± 1.7	858.4 ± 4.1	871.1 ± 1.8
298.15 K, 120000 kPa	768.9 ± 1.8	790.1 ± 1.8	815 ± 1.8	833.8 ± 1.8	861.9 ± 4.1	874.6 ± 1.8
298.15 K, 130000 kPa	772.8 ± 1.9	793.9 ± 1.8	818.7 ± 1.8	837.4 ± 1.8	865.5 ± 4.2	878.1 ± 1.8
298.15 K, 140000 kPa	776.5 ± 1.9	797.6 ± 1.9	822.3 ± 1.8	840.9 ± 1.8	868.9 ± 4.2	881.5 ± 1.9
313.15 K, 100 kPa	686.8 ± 1.4	711 ± 1.4	739.3 ± 1.4	760.9 ± 1.4	793.4 ± 4	808 ± 1.5
313.15 K, 1000 kPa	687.7 ± 1.4	711.8 ± 1.4	740.1 ± 1.4	761.7 ± 1.5	794 ± 4	808.6 ± 1.5
313.15 K, 5000 kPa	691.7 ± 1.4	715.5 ± 1.4	743.5 ± 1.4	764.9 ± 1.5	796.9 ± 4	811.4 ± 1.5
313.15 K, 10000 kPa	696.4 ± 1.4	719.9 ± 1.4	747.6 ± 1.5	768.7 ± 1.5	800.4 ± 4	814.7 ± 1.5
313.15 K, 15000 kPa	700.8 ± 1.4	724.1 ± 1.5	751.5 ± 1.5	772.3 ± 1.5	803.8 ± 4	817.9 ± 1.6
313.15 K, 20000 kPa	704.9 ± 1.5	728 ± 1.5	755.2 ± 1.5	775.8 ± 1.5	807 ± 4	821 ± 1.6
313.15 K, 25000 kPa	708.6 ± 1.5	731.5 ± 1.5	758.4 ± 1.5	778.9 ± 1.5	809.9 ± 4.1	823.8 ± 1.6
313.15 K, 30000 kPa	712.6 ± 1.5	735.3 ± 1.5	762 ± 1.5	782.3 ± 1.5	813 ± 4.1	826.8 ± 1.6
313.15 K, 35000 kPa	716.1 ± 1.5	738.7 ± 1.5	765.2 ± 1.5	785.4 ± 1.5	815.9 ± 4.1	829.5 ± 1.6
313.15 K, 40000 kPa	719.4 ± 1.5	741.9 ± 1.5	768.2 ± 1.5	788.3 ± 1.6	818.5 ± 4.1	832.1 ± 1.6
313.15 K, 45000 kPa	722.7 ± 1.5	745 ± 1.5	771.2 ± 1.5	791.1 ± 1.6	821.2 ± 4.1	834.7 ± 1.6
313.15 K, 50000 kPa	725.8 ± 1.5	748 ± 1.6	774.1 ± 1.6	793.9 ± 1.6	823.8 ± 4.1	837.2 ± 1.7
313.15 K, 55000 kPa	728.8 ± 1.6	750.9 ± 1.6	776.9 ± 1.6	796.6 ± 1.6	826.4 ± 4.1	839.7 ± 1.7
313.15 K, 60000 kPa	731.8 ± 1.6	753.8 ± 1.6	779.6 ± 1.6	799.2 ± 1.6	828.8 ± 4.1	842.1 ± 1.7
313.15 K, 65000 kPa	734.6 ± 1.6	756.5 ± 1.6	782.2 ± 1.6	801.8 ± 1.6	831.2 ± 4.1	844.4 ± 1.7
313.15 K, 70000 kPa	737.3 ± 1.6	759.1 ± 1.6	784.8 ± 1.6	804.2 ± 1.6	833.6 ± 4.1	846.7 ± 1.7
313.15 K, 80000 kPa	742.5 ± 1.7	764.2 ± 1.7	789.6 ± 1.7	808.9 ± 1.7	838 ± 4.1	851.1 ± 1.7
313.15 K, 90000 kPa	747.5 ± 1.7	769 ± 1.7	794.3 ± 1.7	813.5 ± 1.7	842.4 ± 4.1	855.3 ± 1.8
313.15 K, 100000 kPa	752.1 ± 1.7	773.6 ± 1.7	798.7 ± 1.7	817.7 ± 1.7	846.4 ± 4.1	859.3 ± 1.8
313.15 K, 110000 kPa	756.6 ± 1.8	778 ± 1.8	803 ± 1.8	821.9 ± 1.8	850.4 ± 4.1	863.2 ± 1.8
313.15 K, 120000 kPa	760.8 ± 1.8	782.1 ± 1.8	807 ± 1.8	825.8 ± 1.8	854.2 ± 4.2	867 ± 1.8
313.15 K, 130000 kPa	765 ± 1.9	786.2 ± 1.8	810.9 ± 1.8	829.7 ± 1.8	857.9 ± 4.2	870.6 ± 1.9
313.15 K, 140000 kPa	768.9 ± 1.9	790.1 ± 1.9	814.7 ± 1.9	833.4 ± 1.8	861.5 ± 4.2	874.2 ± 1.9
333.15 K, 100 kPa	669.3 ± 1.4	693.9 ± 1.4	722.8 ± 1.4	745 ± 1.4	778 ± 4	793.3 ± 1.5
333.15 K, 1000 kPa	670.5 ± 1.4	694.9 ± 1.4	723.7 ± 1.4	745.8 ± 1.5	778.8 ± 4	794 ± 1.5
333.15 K, 5000 kPa	675.1 ± 1.4	699.1 ± 1.4	727.6 ± 1.4	749.5 ± 1.5	782 ± 4	797.1 ± 1.5
333.15 K, 10000 kPa	680.5 ± 1.4	704.1 ± 1.4	732.1 ± 1.5	753.7 ± 1.5	785.9 ± 4	800.7 ± 1.5
333.15 K, 15000 kPa	685.6 ± 1.4	708.9 ± 1.5	736.5 ± 1.5	757.8 ± 1.5	789.7 ± 4	804.3 ± 1.6
333.15 K, 20000 kPa	690.2 ± 1.5	713.2 ± 1.5	740.5 ± 1.5	761.7 ± 1.5	793.1 ± 4	807.7 ± 1.6
333.15 K, 25000 kPa	694.5 ± 1.5	717.3 ± 1.5	744.4 ± 1.5	765.3 ± 1.5	796.5 ± 4.1	810.8 ± 1.6
333.15 K, 30000 kPa	698.8 ± 1.5	721.2 ± 1.5	748.1 ± 1.5	768.8 ± 1.5	799.7 ± 4.1	813.9 ± 1.6
333.15 K, 35000 kPa	702.7 ± 1.5	725 ± 1.5	751.6 ± 1.5	772.1 ± 1.5	802.8 ± 4.1	816.9 ± 1.6
333.15 K, 40000 kPa	706.4 ± 1.5	728.5 ± 1.5	755 ± 1.5	775.3 ± 1.6	805.8 ± 4.1	819.8 ± 1.6
333.15 K, 45000 kPa	710 ± 1.5	731.9 ± 1.5	758.1 ± 1.6	778.3 ± 1.6	808.7 ± 4.1	822.4 ± 1.7
333.15 K, 50000 kPa	713.5 ± 1.6	735.2 ± 1.6	761.3 ± 1.6	781.4 ± 1.6	811.5 ± 4.1	825.2 ± 1.7
333.15 K, 55000 kPa	716.7 ± 1.6	738.3 ± 1.6	764.3 ± 1.6	784.2 ± 1.6	814.2 ± 4.1	827.8 ± 1.7
333.15 K, 60000 kPa	719.9 ± 1.6	741.3 ± 1.6	767.2 ± 1.6	787 ± 1.6	816.8 ± 4.1	830.3 ± 1.7
333.15 K, 65000 kPa	723 ± 1.6	744.3 ± 1.6	770 ± 1.6	789.8 ± 1.6	819.4 ± 4.1	832.9 ± 1.7
333.15 K, 70000 kPa	726 ± 1.6	747.2 ± 1.6	772.8 ± 1.6	792.4 ± 1.7	821.9 ± 4.1	835.3 ± 1.7
333.15 K, 80000 kPa	731.6 ± 1.7	752.6 ± 1.7	778 ± 1.7	797.4 ± 1.7	826.7 ± 4.1	839.9 ± 1.8
333.15 K, 90000 kPa	737 ± 1.7	757.8 ± 1.7	783 ± 1.7	802.3 ± 1.7	831.3 ± 4.1	844.5 ± 1.8
333.15 K, 100000 kPa	742 ± 1.8	762.6 ± 1.8	787.7 ± 1.7	806.8 ± 1.8	835.6 ± 4.1	848.7 ± 1.8
333.15 K, 110000 kPa	746.8 ± 1.8	767.3 ± 1.8	792.2 ± 1.8	811.2 ± 1.8	839.8 ± 4.2	852.8 ± 1.8
333.15 K, 120000 kPa	751.3 ± 1.9	771.6 ± 1.8	796.4 ± 1.8	815.4 ± 1.8	843.8 ± 4.2	856.8 ± 1.9
333.15 K, 130000 kPa	755.6 ± 1.9	775.8 ± 1.9	800.6 ± 1.9	819.4 ± 1.8	847.7 ± 4.2	860.5 ± 1.9
333.15 K, 140000 kPa	759.8 ± 2	–	–	–	–	–
